Read-outs that look alike come from different tables or passages of the source. One block for each molecule: values may come before it.
Assay: Pharmacokinetics of KB-ND-002 compared to Cysteamine Hydrochloride and EPA in mouse plasma and brain after oral administration
Assay type: in vivo, male mice
Conditions: for maximum concentration of Cysteamine after dosing compared to endogenous levels in control group animals: analyte Cysteamine
Protocol: Method of Treatment, Testing and Results Using the Final Compound of formula 1 at Charles River Labs: Pharmacokinetics of KB-ND-002 compared to Cysteamine Hydrochloride and EPA in Mouse Plasma and Brain
Parameter estimation was performed on mean plasma and brain Eicosapentanoiec acid, KB-ND-002 and Cysteamine concentration vs nominal sampling time values from 3 animals per timepoint. Parameter estimates were derived for each analyte, and matrix using a non-compartmental approach in WinNonlin Enterprise version 5.2.1 (Pharsight Corp., Mountain View, Calif., USA) in accordance with Charles River standard operating procedures. A WinNonlin regression analysis was performed with each concentration vs time profile reviewed by means of visual inspection to appropriately characterise the apparent terminal elimination phase and optimise the reliability of the lambda-z estimation.
Following Oral Administration of KB-ND-002 (Formula 1), Cysteamine or Eicosapentanoiec Acid in Male Mice, Concentration Vs Time Profiles were Partially Evaluable for PK Purposes.

- systemic exposure to Cysteamine, comparison between groups (112 mg/kg Cysteamine administered): greatest
- maximum concentration of Cysteamine after dosing compared to endogenous levels in control group animals (brain, oral, male mice): up to 10 fold
- maximum concentration of Cysteamine after dosing compared to endogenous levels in control group animals (plasma, oral, male mice): over 400 fold
- Tmax (male, mouse, brain, Group 4, 112 mg/kg Cysteamine oral, read-out: time of peak concentration of Cysteamine (Tmax)): 30 min
- Tmax (male, mouse, plasma, Group 4, 112 mg/kg Cysteamine oral, read-out: time of peak concentration of Cysteamine (Tmax)): 4.8 min
Structure (SMILES): NCCS [Cysteamine]
- Cysteamine concentrations quantifiable over sampling period (brain, sampling duration 5 h): quantifiable for the entire duration of sampling
- Cysteamine concentrations observed over sampling period (plasma, only following administration of Cysteamine (Group 4)): only consistently observed for the entire duration of sampling

- systemic exposure to Eicosapentanoiec acid, comparison between groups (112 mg/kg Eicosapentanoiec acid administered): greatest
- maximum concentration of Eicosapentanoiec acid after dosing compared to endogenous levels in control group animals (analyte Eicosapentanoiec acid, plasma, oral, male mice): over 20 fold
- Tmax (male, mouse, brain, Group 5, 112 mg/kg Eicosapentanoiec acid oral, read-out: time of peak concentration of Eicosapentanoiec acid (Tmax)): 60 min
- Tmax (male, mouse, plasma, Group 5, 112 mg/kg Eicosapentanoiec acid oral, read-out: time of peak concentration of Eicosapentanoiec acid (Tmax)): 60 min
Structure (SMILES): CC/C=C\C/C=C\C/C=C\C/C=C\C/C=C\CCCC(=O)O [Eicosapentanoiec acid]
- Eicosapentanoiec acid concentrations quantifiable over sampling period (plasma and brain, sampling duration 5 h): quantifiable for the entire duration of sampling

Structure (SMILES): CC/C=C\C/C=C\C/C=C\C/C=C\C/C=C/CCCC(=O)NCCSC(C)=O [KB-ND-002]
- Kp (male, mouse, brain and plasma, oral, brain at highest dose vs plasma after low dose (60 mg/kg), read-out: systemic exposure to KB-ND-002 in brain relative to plasma): < 0.01
- dose proportionality based on dose normalised estimates of Cmax and AUC(0-t) (plasma, oral KB-ND-002): sub-proportional

— patent publication US8445707B1, “Compound, composition and uses thereof” (Krisani Biosciences (P) Ltd., priority 2012, dated 2013)
